Where two headings read alike, the source gives them in different places.
Assays:
Conditions in all cases: mouse, at 4 hours
[1] = test system: constipation induced by morphine
Method: The mice were divided into three groups one as control and two administered intraperitoneally with morphine hydrochloride (5 mg/kg).

[2] = test system: constipation induced by loperamide
Method: The mice were divided into three groups one as control and two administered with loperamide hydrochloride (5 mg/kg).

[3] = test system: constipation induced by loperamide; remark: listed apart in the source

In the case of `CN1CC[C@]23c4c5ccc(O)c4O[C@H]2[C@@H](O)C=C[C@H]3[C@H]1C5` [morphine, reference compound], the “wet weight of stools, opioid alone” value ([1]; morphine hydrochloride 5 mg/kg intraperitoneally alone, control group 200 mg) is reported as 25 mg.

“tyrosyl-D-alanyl-glycyl-cinnamylpiperazine hydrochloride [peptidomimetic 1]” was tested, and the “stools relative to control group” value ([2]; peptidomimetic 10 mg/kg orally 30 minutes before loperamide hydrochloride 5 mg/kg) was 80% and the “wet weight of stools” value ([2]; peptidomimetic 10 mg/kg orally 30 minutes before loperamide hydrochloride 5 mg/kg, control group 200 mg) was 160 mg.

With “Tyrosyl-D-arginyl-cinnamylpiperazine dihydrochloride [peptidomimetic 3]” the “stools relative to control group” value ([3]; loperamide 5 mg/kg with peptidomimetic 10 mg/kg in 20% gum arabic) was 60% and the “wet weight of stools” value ([3]; loperamide 5 mg/kg with peptidomimetic 10 mg/kg in 20% gum arabic, control group 200 mg) was 120 mg.

In the case of “tyrosyl-D-threonyl-glycyl-phenylalanyl-cinnamylpiperazine hydrochloride [peptidomimetic 2]”, the “reversal of morphine effect on stools” value ([1]; peptidomimetic orally 30 minutes before morphine hydrochloride 5 mg/kg intraperitoneally) is reported as “fully reversed morphine effect”.

In the case of `CN(C)C(=O)C(CCN1CCC(O)(c2ccc(Cl)cc2)CC1)(c1ccccc1)c1ccccc1` [loperamide, reference compound], the “wet weight of stools, opioid alone” value ([2]; loperamide hydrochloride 5 mg/kg alone, control group 200 mg) is reported as 15 mg and the “wet weight of stools, opioid alone” value ([3]; loperamide 5 mg/kg orally in 20% gum arabic alone, control group 200 mg) is reported as 22 mg.

Source: patent publication US9169288B2, “Peptidomimetics and their application” (Instytut Medycyny Doswiadczalnej i Klinicznej im. Miroslawa …, priority 2012, dated 2015)
